Test results from the supplement of paper PMC10307832.

Key:
Assay in all cases: relative viability (nuclei count vs DMSO), 5 days (fraction); higher = more cells survive
Tosedostat + Tozasertib = compound: CC(C)C[C@@H](C(=O)N[C@H](C(=O)OC1CCCC1)c1ccccc1)[C@H](O)C(=O)NO [Tosedostat] + Cc1cc(Nc2cc(N3CCN(C)CC3)nc(Sc3ccc(NC(=O)C4CC4)cc3)n2)n[nH]1 [Tozasertib] (partner 0.1 µM)
Procedure, shortened: (§1)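 Five library-drug doses in √10 steps were combined with a fixed anchor-drug dose, or a single drug was given alone, by pin tool to lung cancer cell lines in 1536-well plates the day after seeding. Nuclei were stained and counted after 5 days. Relative viability is the nuclei count in treated wells over that in vehicle wells, taken as the median of duplicate plates.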

[1] = compound: CC1=NN=C(O1)C2=NN=C(C=C2)N3CCC(CC3)OC4=C(C=CC(=C4)F)Cl + CC(=O)c1c(C)c2cnc(Nc3ccc(N4CCNCC4)cn3)nc2n(C2CCCC2)c1=O [Palbociclib] (partner 0.5 µM)
Procedure, shortened: as §1

[2] = compound: CC1=NN=C(O1)C2=NN=C(C=C2)N3CCC(CC3)OC4=C(C=CC(=C4)F)Cl + CC1(C)CCC(c2ccc(Cl)cc2)=C(CN2CCN(c3ccc(C(=O)NS(=O)(=O)c4ccc(N[C@H](CCN5CCOCC5)CSc5ccccc5)c(S(=O)(=O)C(F)(F)F)c4)cc3)CC2)C1 [Navitoclax] (partner 0.5 µM)
Procedure, shortened: as §1

[3] = compound: CC1=NN=C(O1)C2=NN=C(C=C2)N3CCC(CC3)OC4=C(C=CC(=C4)F)Cl + C[C@]1(O)C[C@@H](c2nc(-c3ccc4ccc(-c5ccccc5)nc4c3)c3c(N)nccn32)C1 [Linsitinib] (partner 1 µM)
Procedure, shortened: as §1

Cell Line	relative viability (Tosedostat + Tozasertib; first compound 0.02 µM)	relative viability (Tosedostat + Tozasertib; first compound 0.06325 µM)	relative viability (Tosedostat + Tozasertib; first compound 0.2 µM)	relative viability (Tosedostat + Tozasertib; first compound 0.6325 µM)	relative viability (Tosedostat + Tozasertib; first compound 2 µM)	relative viability ([1]; first compound 0.253 µM)	relative viability ([1]; first compound 0.8 µM)	relative viability ([1]; first compound 2.53 µM)	relative viability ([1]; first compound 8 µM)	relative viability ([2]; first compound 0.253 µM)	relative viability ([2]; first compound 0.8 µM)	relative viability ([2]; first compound 2.53 µM)	relative viability ([2]; first compound 8 µM)	relative viability ([3]; first compound 0.253 µM)	relative viability ([3]; first compound 0.8 µM)	relative viability ([3]; first compound 2.53 µM)	relative viability ([3]; first compound 8 µM)
NCI-H2085	0.695	0.695	0.784	0.909	0.838	0.425	0.431	0.469	0.37	0.9	0.919	0.908	0.698	0.743	0.793	0.792	0.65
CAL-12T	0.366	0.313	0.345	0.279	0.301	0.441	0.485	0.43	0.336	1	1.09	0.834	1	0.953	0.78	0.754	0.869
NCI-H1623	0.41	0.42	0.425	0.387	0.42	–	–	–	–	–	–	–	–	–	–	–	–
HCC-44	1.18	0.893	0.885	0.806	0.338	0.366	0.434	0.412	0.355	0.424	0.476	0.477	0.447	0.423	0.484	0.484	0.384
EKVX	0.401	0.511	0.392	0.358	0.311	0.282	0.257	0.286	0.292	0.451	0.368	0.429	0.423	0.409	0.341	0.364	0.423
NCI-H1734	0.24	0.242	0.278	0.229	0.208	0.344	0.334	0.345	0.324	0.826	0.682	0.843	0.754	0.863	0.783	0.814	0.601
NCI-H1944	0.244	0.244	0.23	0.256	0.22	0.238	0.278	0.249	0.246	0.637	0.665	0.733	0.672	0.626	0.769	0.728	0.717
NCI-H1792	–	–	–	–	–	0.358	0.502	0.449	0.474	0.4	0.409	0.409	0.482	0.324	0.409	0.36	0.401
Calu-6	–	–	–	–	–	–	–	–	–	0.667	0.673	0.651	0.612	0.635	0.612	0.691	0.656
EBC-1	–	–	–	–	–	–	–	–	–	0.352	0.375	0.26	0.276	0.549	0.558	0.623	0.57
NCI-H596	0.893	0.875	0.791	0.934	0.729	–	–	–	–	–	0.756	0.894	0.723	–	0.953	1.01	0.933
A-427	0.217	0.196	0.185	0.162	0.152	0.567	0.566	0.584	0.564	0.86	–	0.771	0.631	0.947	–	0.907	0.887
NCI-H441	0.911	0.567	0.561	0.542	0.423	0.206	0.257	0.282	0.217	0.536	0.654	0.544	0.472	0.571	0.419	0.473	0.396
NCI-H1563	–	–	–	–	–	–	–	–	–	–	–	–	–	1.18	1.1	1.35	1.21
NCI-H358	0.0914	0.1	0.0977	0.0822	0.0804	0.137	0.12	0.119	0.133	–	–	–	–	0.714	0.751	0.758	0.795
LOU-NH91	0.686	0.699	0.665	0.574	0.917	–	0.535	0.478	0.632	–	0.577	0.697	0.705	–	0.86	0.862	0.997
NCI-H3122	0.413	0.4	0.393	0.388	0.306	0.191	0.201	0.183	0.221	0.564	0.612	0.691	0.46	0.729	0.551	0.749	0.517
HOP-62	0.393	0.31	0.329	0.323	0.152	0.351	0.356	0.265	0.212	0.834	0.542	0.816	0.863	0.677	–	0.771	0.443
HARA	0.111	0.129	0.0782	0.0748	0.07	0.233	0.25	0.235	0.222	0.451	0.392	0.393	0.352	0.705	0.394	0.451	0.308
SW 1573	0.183	0.193	0.205	0.219	0.157	0.314	0.372	0.255	0.262	1.03	0.84	0.851	0.922	0.805	0.727	0.74	0.673
NCI-H1993	0.631	0.535	0.56	0.588	0.493	0.523	0.579	0.644	0.603	0.804	0.824	0.876	0.878	0.679	0.745	0.647	0.693
HCC-78	0.414	0.509	0.426	0.461	0.406	0.454	0.366	0.473	0.457	0.436	0.43	0.544	0.525	0.455	0.417	0.459	0.403
